According to patent US20070027130A1, “Tricyclic 6-alkylidene-penem beta-lactamase inhibitors and beta-lactam antibiotic combination: a broad spectrum antibiotic” (priority 2005, published 2007):
Values after ≈ are worked out from the molar mass of the structure shown. Like-named read-outs stand apart in the source and are kept apart here.

Key:
Experiment in all cases: MIC microbroth dilution
Format in all cases: cell-based
[1] = tested on: E. coli GC 2146 (TEM-1; SHV-7); settings: Escherichia coli, β-lactamase class A, A (ESBL), MHBII, 35° C. 18 hr, read-out: Minimal Inhibitory Concentration
Procedure: (§1) The in vitro activities of the antibiotics were determined by the microbroth dilution method as recommended by the National Committee for Clinical Laboratory Standards (NCCLS). (NCCLS. 2000. Methods for Dilution Antimicrobial Susceptibility Tests for Bacteria That Grow Aerobically; Approved Standards: M7-A5, vol. 19. National Committee for Clinical Laboratory Standards, Villanova, Pa.). Mueller-Hinton II broth (MHBII) (BBL Cockeysville, Md.), was used for the testing procedure. […]. The plates were incubated for 18-22 hours at 35 C. in ambient air.

[2] = tested on: K. pn GC 6651 (TEM-1 + SHV-1 + SHV-5); settings: Klebsiella pneumoniae, β-lactamase class A, A (ESBL), MHBII, 35° C. 18 hr, read-out: Minimal Inhibitory Concentration
Procedure: as §1

[3] = tested on: E. coli GC 1499 (TEM-4 + TEM-1); settings: Escherichia coli, β-lactamase class A, A (ESBL), MHBII, 35° C. 18 hr, read-out: Minimal Inhibitory Concentration
Procedure: as §1

[4] = tested on: E. cloacae GC 7065 TEM-26, SHV-12 Amp C inducable; settings: Enterobacter cloacae, β-lactamase class A (ESBL), MHBII, 35° C. 18 hr, read-out: Minimal Inhibitory Concentration
Procedure: as §1

E. coli GC 2400 (TEM-43) = settings: Escherichia coli, β-lactamase class A (ESBL), MHBII, 35° C. 18 hr, read-out: Minimal Inhibitory Concentration
Procedure: as §1

[5] = tested on: E. cloacae GC 1712 AmpC-inducible; settings: Enterobacter cloacae, β-lactamase class C, MHBII, 35° C. 18 hr, read-out: Minimal Inhibitory Concentration
Procedure: as §1

[6] = tested on: K. pn GC 3057 (CAZ-R; P/T-R); settings: Klebsiella pneumoniae, β-lactamase class A, A (ESBL), MHBII, 35° C. 18 hr, read-out: Minimal Inhibitory Concentration
Procedure: as §1

E. coli GC 2300 (TEM-28) = settings: Escherichia coli, β-lactamase class A (ESBL), MHBII, 35° C. 18 hr, read-out: Minimal Inhibitory Concentration
Procedure: as §1

[7] = tested on: K. pn GC 6655 (TEM-1 + ACT-1); settings: Klebsiella pneumoniae, β-lactamase class A, C, MHBII, 35° C. 18 hr, read-out: Minimal Inhibitory Concentration
Procedure: as §1

[8] = tested on: K. pn GC 1554 (TEM-1 + TEM-26 + SHV-1); settings: Klebsiella pneumoniae, β-lactamase class A, A (ESBL), MHBII, 35° C. 18 hr, read-out: Minimal Inhibitory Concentration
Procedure: as §1

[9] = tested on: K. pneumoniae GC 7822 Act 1; settings: Klebsiella pneumoniae, GC7822ACT1, β-lactamase class C, MHBII, 35° C. 18 hr, read-out: Minimal Inhibitory Concentration
Procedure: as §1

[10] = tested on: E. cloacae GC 4142 (AmpC); settings: Enterobacter cloacae
Procedure: as §1

[11] = tested on: E. coli GC 2021 (TEM-10 + pl 6.3); settings: Escherichia coli, 18 h, read-out: Minimal Inhibitory Concentration
Procedure: as §1

[12] = tested on: E. coli GC 6260 (TEM-1 + SHV-5); settings: Escherichia coli, β-lactamase class A, A (ESBL), MHBII, 35° C. 18 hr, read-out: Minimal Inhibitory Concentration
Procedure: as §1

[13] = tested on: E. coli GC 2015 (TEM-10 + SHV-1); settings: Escherichia coli, β-lactamase class A, A (ESBL), MHBII, 35° C. 18 hr, read-out: Minimal Inhibitory Concentration
Procedure: as §1

[14] = tested on: E. coli GC 4971 OXA-1, TEM-1; settings: Escherichia coli, β-lactamase class A, D, MHBII, 35° C. 18 hr, read-out: Minimal Inhibitory Concentration
Procedure: as §1

[15] = tested on: A. baumannii GC 7692 TEM-1, AmpC; settings: Acinetobacter baumannii, 18 h, read-out: Minimal Inhibitory Concentration
Procedure: as §1

[16] = tested on: K. pneumoniae GC 7632 TEM-1 KPC-2, SHV-7, SHV-12; settings: Klebsiella pneumoniae, β-lactamase class A, A (Cb'ase), A (ESBL), MHBII, 35° C. 18 hr, read-out: Minimal Inhibitory Concentration
Procedure: as §1

E. coli GC 2805 (CcrA) = settings: Escherichia coli, 18 h, read-out: Minimal Inhibitory Concentration
Procedure: as §1

[17] = tested on: K. pneumoniae GC 2825 Act 1 + 3 additional; settings: Klebsiella pneumoniae, β-lactamase class A, A (ESBL), C, MHBII, 35° C. 18 hr, read-out: Minimal Inhibitory Concentration
Procedure: as §1

[18] = tested on: E. coli GAR 6649 TEM, OXA, CTX (By PCR only); settings: Escherichia coli, β-lactamase class A, A (ESBL), D, MHBII, 35° C. 18 hr, read-out: Minimal Inhibitory Concentration
Procedure: as §1

[19] = tested on: E. coli GC 2017 (TEM-10 + pl 6.3; 8.1); settings: Escherichia coli, β-lactamase class A (ESBL), MHBII, 35° C. 18 hr, read-out: Minimal Inhibitory Concentration
Procedure: as §1

E. coli GC 2847 (TEM-1) = settings: Escherichia coli, β-lactamase class A, MHBII, 35° C. 18 hr, read-out: Minimal Inhibitory Concentration
Procedure: as §1

[20] = tested on: E. cloacae GC 1477 (AmpC); settings: Enterobacter cloacae, β-lactamase class C, MHBII, 35° C. 18 hr, read-out: Minimal Inhibitory Concentration
Procedure: as §1

[21] = tested on: P. aeruginosa GC 3153 Inducible AmpC; settings: Pseudomonas aeruginosa, β-lactamase class C, MHBII, 35° C. 18 hr, read-out: Minimal Inhibitory Concentration
Procedure: as §1

[22] = tested on: M. morganii GC 1617 TEM-10 + inducible AmpC; settings: Morganella morganii, β-lactamase class A (ESBL), C, MHBII, 35° C. 18 hr, read-out: Minimal Inhibitory Concentration
Procedure: as §1

`CO/N=C(\C(=O)N[C@@H]1C(=O)N2C(C(=O)[O-])=C(C[N+]3(C)CCCC3)CS[C@H]12)c1csc(N)n1` [Cefepime] was tested, and the MIC [1] was > 16 µg/mL, the MIC [2] was 2 µg/mL (≈ 4.16 µM) and the MIC [3] was > 16 µg/mL. The MIC [4] was 16 µg/mL (≈ 33.3 µM), the MIC (E. coli GC 2400 (TEM-43)) was > 16 µg/mL and the MIC [5] was 0.25 µg/mL (≈ 0.52 µM). The MIC [6] was 16 µg/mL (≈ 33.3 µM), the MIC (E. coli GC 2300 (TEM-28)) was > 16 µg/mL and the MIC [7] was 1 µg/mL (≈ 2.08 µM). For the same compound, the MIC [8] was 8 µg/mL (≈ 16.6 µM), the MIC [9] was > 16 µg/mL and the MIC ([10]; E. cloacae GC 4142, β-lactamase class C, MHBII, 35° C. 18 hr, read-out: Minimal Inhibitory Concentration) was 8 µg/mL (≈ 16.6 µM). The MIC ([10]; Table 3, E. cloacae GC4142 AmpC, read-out: MIC* (minimum inhibitory concentration)) was 16 µg/mL (≈ 33.3 µM), the MIC [11] was 8 µg/mL (≈ 16.6 µM) and the MIC [12] was > 16 µg/mL. The MIC [13] was > 16 µg/mL, the MIC [14] was 2 µg/mL (≈ 4.16 µM) and the MIC [15] was > 16 µg/mL. For the same compound, the MIC [16] was > 16 µg/mL, the MIC (E. coli GC 2805 (CcrA)) was > 16 µg/mL and the MIC [17] was 2 µg/mL (≈ 4.16 µM). The MIC [18] was > 16 µg/mL, the MIC [19] was 16 µg/mL (≈ 33.3 µM) and the MIC (E. coli GC 2847 (TEM-1)) was 0.12 µg/mL (≈ 0.25 µM). The MIC [20] was 4 µg/mL (≈ 8.32 µM), the MIC [21] was 16 µg/mL (≈ 33.3 µM) and the MIC [22] was 0.25 µg/mL (≈ 0.52 µM).
